{"source": "paper PMC5848165", "about": "(Toxins, 2018)", "key": {"[1]": {"system": "TTX-R sodium channels from rat DRG neurons", "conditions": "ref [18]; cited from earlier work", "description": "In this study, the analgesic effect and mechanism of JZTX-34 on pain were investigated."}, "Nav1.1": {"system": "Nav1.1", "test": "Whole-cell patch clamp, Nav1.1 in HEK293 cells", "type": "cell-based, rat", "conditions": "1 µM, −10 mV from −80 mV", "description": "Nine sodium channel subtypes have been identified and classified as TTX-S (Nav1.1–Nav1.4, Nav1.6, and Nav1.7) or TTX-R types (Nav1.5, Nav1.8, and Nav1.9). […] However, the subtype selectivity of JZTX-34 on the subtype of sodium channel is still unknown. In this work, effects of JZTX-34 on VGSC subtypes (Nav1.1–Nav1.8) were examined. Nav1.1–Nav1.7 were transfected into HEK293 cells and Nav1.8 currents were expressed in ND cells. Inward sodium currents were elicited by a 50 ms depolarizing potential to −10 mV from a holding potential of −80 mV every 5 s. […] No effects on other sodium channel subtypes were found (Nav1.1, Nav1.2, Nav1.4–Nav1.6, and Nav1.8) (Figure S2). […]\n(§1) The HEK293T cells were maintained in standard culture conditions (5% CO2 and 37 °C). […] After culturing for 36–72 h, cells with obvious green fluorescence were selected for sodium currents recordings the internal solution for sodium currents recording that contained (in mM) 140 CsF, 5 NaCl, 10 HEPES, 3 Na2-ATP, and 10 EGTA. […]\n(§2) Sodium currents were recorded from DRG, HEK293, and ND cells by the whole-cell patch-clamp technique at 25 °C. […] Experiments date were acquired from whole-cell Axon 700B patch clamp amplifier (Molecular Devices, Sunnyvale, CA, USA) and analyzed by the program Clampfit10.0 (Molecular Devices, Sunnyvale, CA, USA) and Sigmaplot. […]"}, "Nav1.6": {"system": "Nav1.6", "test": "Whole-cell patch clamp, Nav1.6 in HEK293 cells", "type": "cell-based", "conditions": "1 µM, −10 mV from −80 mV", "description": "Nine sodium channel subtypes have been identified and classified as TTX-S (Nav1.1–Nav1.4, Nav1.6, and Nav1.7) or TTX-R types (Nav1.5, Nav1.8, and Nav1.9). […] However, the subtype selectivity of JZTX-34 on the subtype of sodium channel is still unknown. In this work, effects of JZTX-34 on VGSC subtypes (Nav1.1–Nav1.8) were examined. Nav1.1–Nav1.7 were transfected into HEK293 cells and Nav1.8 currents were expressed in ND cells. Inward sodium currents were elicited by a 50 ms depolarizing potential to −10 mV from a holding potential of −80 mV every 5 s. […] No effects on other sodium channel subtypes were found (Nav1.1, Nav1.2, Nav1.4–Nav1.6, and Nav1.8) (Figure S2).\nThe HEK293T cells were maintained in standard culture conditions (5% CO2 and 37 °C). Then, 10% fetal bovine serum was added to Dulbecco’s modified Eagle’s medium. […] After culturing for 36–72 h, cells with obvious green fluorescence were selected for sodium currents recordings the internal solution for sodium currents recording that contained (in mM) 140 CsF, 5 NaCl, 10 HEPES, 3 Na2-ATP, and 10 EGTA. […]\nas §2"}, "Nav1.5 R800D": {"target": "T1, Nav1.5 R800D (Rattus norvegicus, UniProt P15389, R801D)", "T1 construct": "expressed in transfected cells; host or cells: HEK293 (HEK293T) cells, transient", "T1 sequence (Q07699 19-218)": "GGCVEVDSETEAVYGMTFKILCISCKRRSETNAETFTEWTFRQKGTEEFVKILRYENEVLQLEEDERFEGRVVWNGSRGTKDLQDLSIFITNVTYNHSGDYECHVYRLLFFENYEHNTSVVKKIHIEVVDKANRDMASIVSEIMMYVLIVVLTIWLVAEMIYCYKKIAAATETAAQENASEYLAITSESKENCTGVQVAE", "T1 sequence (P15389 whole entry R801D)": "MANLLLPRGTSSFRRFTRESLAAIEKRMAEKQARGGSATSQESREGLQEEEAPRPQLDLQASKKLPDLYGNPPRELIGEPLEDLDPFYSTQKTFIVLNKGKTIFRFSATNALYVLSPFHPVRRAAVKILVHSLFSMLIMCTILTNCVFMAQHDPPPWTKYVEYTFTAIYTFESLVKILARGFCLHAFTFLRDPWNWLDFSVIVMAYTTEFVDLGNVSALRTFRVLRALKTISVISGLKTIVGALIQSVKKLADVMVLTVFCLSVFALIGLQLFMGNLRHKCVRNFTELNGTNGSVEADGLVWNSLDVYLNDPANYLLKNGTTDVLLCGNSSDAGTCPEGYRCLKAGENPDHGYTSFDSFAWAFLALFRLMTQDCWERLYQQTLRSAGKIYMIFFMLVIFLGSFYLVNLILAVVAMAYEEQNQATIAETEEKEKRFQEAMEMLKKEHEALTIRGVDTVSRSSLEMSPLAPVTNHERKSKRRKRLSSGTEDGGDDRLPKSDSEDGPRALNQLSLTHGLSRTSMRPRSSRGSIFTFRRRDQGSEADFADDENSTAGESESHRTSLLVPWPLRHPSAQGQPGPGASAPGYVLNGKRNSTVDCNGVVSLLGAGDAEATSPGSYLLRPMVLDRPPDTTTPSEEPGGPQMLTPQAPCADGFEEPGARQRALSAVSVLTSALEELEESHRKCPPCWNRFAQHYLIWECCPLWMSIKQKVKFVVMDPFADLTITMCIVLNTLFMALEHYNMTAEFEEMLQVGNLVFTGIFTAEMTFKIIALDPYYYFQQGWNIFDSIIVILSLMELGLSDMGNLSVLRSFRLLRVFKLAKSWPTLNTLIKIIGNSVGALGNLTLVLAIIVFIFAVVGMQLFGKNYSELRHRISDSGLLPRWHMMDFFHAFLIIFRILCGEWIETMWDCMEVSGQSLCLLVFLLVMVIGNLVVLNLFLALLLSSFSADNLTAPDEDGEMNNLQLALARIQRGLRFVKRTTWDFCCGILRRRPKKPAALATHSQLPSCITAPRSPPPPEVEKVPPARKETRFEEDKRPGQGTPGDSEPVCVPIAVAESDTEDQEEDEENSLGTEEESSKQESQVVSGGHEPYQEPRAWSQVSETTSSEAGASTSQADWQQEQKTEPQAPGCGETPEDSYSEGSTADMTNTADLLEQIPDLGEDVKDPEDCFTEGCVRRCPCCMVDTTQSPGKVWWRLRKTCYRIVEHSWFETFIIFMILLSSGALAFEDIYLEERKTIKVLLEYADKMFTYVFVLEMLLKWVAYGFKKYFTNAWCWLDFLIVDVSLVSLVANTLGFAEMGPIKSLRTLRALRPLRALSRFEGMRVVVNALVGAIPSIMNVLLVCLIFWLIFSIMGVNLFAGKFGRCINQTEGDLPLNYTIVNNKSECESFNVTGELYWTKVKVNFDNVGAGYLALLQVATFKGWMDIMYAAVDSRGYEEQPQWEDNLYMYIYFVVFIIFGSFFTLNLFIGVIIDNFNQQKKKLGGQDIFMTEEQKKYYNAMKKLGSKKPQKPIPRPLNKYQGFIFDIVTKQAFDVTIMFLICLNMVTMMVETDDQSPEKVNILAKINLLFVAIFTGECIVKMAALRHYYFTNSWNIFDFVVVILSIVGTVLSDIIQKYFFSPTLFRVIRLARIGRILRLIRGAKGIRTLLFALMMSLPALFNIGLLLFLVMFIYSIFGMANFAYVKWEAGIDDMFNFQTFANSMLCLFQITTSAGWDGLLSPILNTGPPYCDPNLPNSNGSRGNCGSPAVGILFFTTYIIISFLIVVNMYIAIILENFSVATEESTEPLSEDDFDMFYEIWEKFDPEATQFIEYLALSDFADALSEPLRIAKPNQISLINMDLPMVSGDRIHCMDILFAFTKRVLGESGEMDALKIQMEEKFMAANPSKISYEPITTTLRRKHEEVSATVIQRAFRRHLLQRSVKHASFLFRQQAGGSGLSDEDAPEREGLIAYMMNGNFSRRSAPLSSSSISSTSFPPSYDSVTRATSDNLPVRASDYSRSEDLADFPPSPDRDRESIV", "test": "Whole-cell patch clamp, Nav1.5 mutant R800D in HEK293 cells", "type": "cell-based", "conditions": "1 µM", "description": "We next investigated the critical residues in DIIS3-S4 linker that determined the sensitivity of Nav1.7 to JZTX-34. An acidic residue, D816, is present in the DIIS3-S4 linker of Nav1.7, while the corresponding residue in Nav1.5 is an alkaline amino acid, R800. To determine whether the acidic residue D816 occupies an important role in toxin binding, we constructed two mutants: D816R of Nav1.7 and R800D of Nav1.5. One µM of JZTX-34 inhibited 54.3 ± 5.2% of WT Nav1.7 currents (Figure 4A), but only 16.8 ± 4.6% currents of D816R were inhibited at the same concentration (Figure 4B). […]\nas §1, §2\nData from Axon 700B patch clamp were analyzed by Clampfit10.0 (Molecular Devices, Sunnyvale, CA, USA). […]"}}, "note": "Residues, ends and D or L forms follow the SMILES beside them.", "data": [{"smiles": "CC(C)C[C@@H]1NC(=O)[C@H](Cc2c[nH]c3ccccc23)NC(=O)[C@H](CCC(=O)O)NC(=O)[C@H](CCCNC(=N)N)NC(=O)[C@@H](NC(=O)[C@H](C)N)CSSC[C@@H]2NC(=O)[C@@H]3CSSC[C@@H](C(=O)N[C@H](C(=O)N[C@@H](Cc4c[nH]c5ccccc45)C(=O)N[C@@H](CC(=O)O)C(=O)N[C@@H](Cc4c[nH]c5ccccc45)C(=O)N[C@H](C(=O)N[C@H](C(=O)O)C(C)C)[C@@H](C)O)C(C)C)NC(=O)[C@H](Cc4c[nH]cn4)NC(=O)[C@H](Cc4ccc(O)cc4)NC(=O)[C@@H]4CCCN4C(=O)[C@H](Cc4c[nH]c5ccccc45)NC(=O)[C@H](CCCCN)NC(=O)[C@H](CCCCN)NC(=O)[C@H](CCCNC(=N)N)NC(=O)[C@H](CSSC[C@H](NC(=O)CNC(=O)CNC1=O)C(=O)N[C@@H](CO)C(=O)N[C@@H](CCCCN)C(=O)N[C@@H](CC(=O)O)C(=O)N[C@@H](C)C(=O)N[C@@H](CC(=O)O)C(=O)N3)NC(=O)[C@H](CCC(=O)O)NC(=O)[C@H](CC(C)C)NC(=O)[C@H](Cc1c[nH]cn1)NC(=O)[C@H](C)NC2=O", "note": "[JZTX-34, Jingzhaotoxin-34] (HELM PEPTIDE1{A.C.R.E.W.L.G.G.C.S.K.D.A.D.C.C.A.H.L.E.C.R.K.K.W.P.Y.H.C.V.W.D.W.T.V}$PEPTIDE1,PEPTIDE1,2:R3-16:R3|PEPTIDE1,PEPTIDE1,9:R3-21:R3|PEPTIDE1,PEPTIDE1,15:R3-29:R3$$$V2.0; N-terminus and C-terminus assumed)", "values": [{"measurement": "effect on TTX-R sodium currents (previous work)", "setting": "[1]", "value": "no inhibition on tetrodotoxin-resistant (TTX-R) sodium currents"}, {"measurement": "effect on Nav1.1 currents", "setting": "Nav1.1", "value": "No effects"}, {"measurement": "effect on Nav1.6 currents", "setting": "Nav1.6", "value": "No effects"}, {"measurement": "inhibition of Nav1.5 R800D currents", "setting": "Nav1.5 R800D", "value": "obviously inhibited"}]}]}
